# Data: patent US20060093577A1, “Combination anti-viral compositions and methods of use” (priority 2004, published 2006)
# Columns and labels:
# [1] = test system: BVDV; assay: Two-way combination inhibition-of-CPE assay, BVDV-infected MDBK cells, MOI 0.01 (MacSynergy, isobologram); format: cell-based, bovine viral diarrhea virus; details: for EC50: Bovine viral diarrhea virus isolates and strains, MDBK
# Description: (§1) Each two-way combination was performed twice.
# Initially, as was done in Example 1, individual compound potency (EC50) for inhibition of BVDV-induced cytopathic effects in MDBK cells was determined for each combination experiment (see Table 5). Minimal experiment-to-experiment variability in individual drug potency was observed.
# A greater positive percent (synergy) volume is indicative of a synergistic effect. Values less than 25 μM/ml^2% or 25 μM(IU)/ml(well)^2% are insignificant; values between 25 and 50 μM/ml^2% or 25 and 50 μM(IU)/ml(well)^2% are considered minor but significant; values between 50 and 100 μM/ml^2% or μM(IU)/ml(well)^2% indicate moderate synergy that may be indicative of a significant synergistic effect in vivo; and values greater than 100 μM/ml^2% or μM(IU)/ml(well)^2% indicate strong synergy that is likely indicative of a significant synergistic effect in vivo.
# [2] = CC50 in plaque reduction assay table (Example 3); format: cell-based; details: bovine
# [3] = CC50, viability of MDBK cells (Example 1); details: bovine
# Description: MDBK cells were seeded into 96-well plates at a density of approximately 2×10^4 cells per well. The cultures were incubated 3-24 hours to permit attachment of the cells to the plates prior to infection and addition of compounds. […] The mean absorbance in each set of triplicate wells was determined. Antiviral activity was measured as MTS conversion relative to the differential between the conversion for cell (non-infected) and viral (non-drug-treated) controls.
# [4] = test system: BVDV strain NADL; assay: Inhibition of BVDV release from MDBK cells; format: cell-based; details: Bovine viral diarrhea virus isolates and strains, MOI about 0.01, 24 hours
# Description: The cell cultures were incubated 3-24 hours to allow attachment of the cells to the tissue culture plates prior to infection and addition of compounds. The appropriate number of plaque forming units (PFU) of BVDV strain NADL (ATCC VR-534) diluted in sterile PBS containing 1% HS were added to each well to achieve the desired multiplicity of infection (MOI) (about 0.01). The cells were exposed to the virus at 37° C., 5% CO2 for 1.5 hours, and then washed with PBS. The test compounds, dissolved in cell growth media with 2% HS, were then added to the cells at varying concentrations. The plates were incubated at 37° C., 5% CO2 for 24 hours (one cycle of BVDV replication). The 96-well plates were then centrifuged at low speed to pellet the cells. The supernatant was serially diluted and used to infect a new monolayer of cells in 12-well plates. The cell monolayer was then overlaid with 0.5% agarose dissolved in cell growth media with 5% HS containing (1) castanospermine (Phytex, Australia); (2) ribavirin (Ribavirin, Sigma); (3) IFN-α2b (PBL Biomedical Laboratories, Piscataway, N.J.); or (4) alone (i.e., no added test compound). The treated cells were incubated for 3 to 5 days at 37° C. under 5% CO2, fixed with formaldehyde, stained with crystal violet or methylene blue, washed in double distilled water, and finally air dried at room temperature. Virus plaques formed were quantified by manual counting, and titer was determined.
# [5] = test system: BVDV; assay: Plaque reduction assay; format: cell-based; details: Bovine viral diarrhea virus isolates and strains
# Description: The BVDV virus stock was serially diluted in phosphate buffered saline (PBS) containing 1-5% horse serum (HS). MDBK cells were grown to confluence in culture dishes and were infected at 37° C. with BVDV at various multiplicity of infection (<1 to >0.001). After 1.5 hours of adsorption, the inoculum was removed. The cell monolayer was overlaid with 0.5% agarose dissolved in cell growth media containing 5% HS with and without test compound(s) (castanospermine, ribavirin, or IFN-α). The dishes were incubated for 3 to 5 days at 37° C. under 5% CO2. The monolayer of MDBK cells was fixed with formaldehyde, stained with crystal violet or methylene blue according to standard methods, and then washed in double distilled water. Following washing, the plates air dried at room temperature. The virus plaques formed in the MDBK cell cultures were quantified by manual counting. The inhibitory activities of test compounds were determined by calculating the percent (%) reduction in plaques as follows: % reduction in plaques=[…].
# [6] = test system: BVDV; assay: Protection of MDBK cells from BVDV-induced cytotoxicity (MTS/PMS CPE reduction); format: cell-based; details: Bovine viral diarrhea virus isolates and strains
# Description: Cell proliferation assays were performed using a non-radioactive cell proliferation MTS/PMS assay (MTS: 3-(4,5-dimethylthiazol-2-yl)-5-(3-carboxymethoxy phenyl)-2-(4-sulfophenyl)-2H-tetrazolium (Promega Corporation, Madison, Wis.); PMS: phenazine methosulfate (Sigma Aldrich, St. Louis, Mo.)). MDBK cells were seeded into 96-well plates at a density of approximately 2×10^4 cells per well. The cultures were incubated 3-24 hours to permit attachment of the cells to the plates prior to infection and addition of compounds. The appropriate number of PFU of BVDV were added to each well to achieve the desired MOI (0.1 or 0.01); the cells were exposed to the virus diluted at the appropriate concentration in phosphate buffered saline (PBS) containing 1% horse serum for 1 to 2 hours. The virus inoculum was then removed and the cells were washed with PBS containing 1% HS. The test compounds, castanospermine, ribavirin, and interferon-α were dissolved in cell growth media with 2% HS and added to the cells at varying concentrations, and then incubated at 37° C. in the presence of 5% CO2 for 3-4 days. Uninfected cells and infected, untreated cells (i.e., without compound) were used as additional controls. After the 3-4 days of incubation, a combined MTS/PMS solution was added into each well assay plate containing 100 μL of cells in culture medium to obtain final concentrations of 333 μg/ml MTS and 25 μM PMS. A spectrophotometer plate reader was used to measure the absorbance at 490 nm after incubation of the 96-well plate for 1 to 4 hours at 37° C. in a humidified, 5% CO2 atmosphere. The mean absorbance in each set of triplicate wells was determined. Antiviral activity was measured as MTS conversion relative to the differential between the conversion for cell (non-infected) and viral (non-drug-treated) controls. The cytopathic effect (CPE) reduction for each concentration of the tested compound, which correlated with antiviral activity, was calculated as follows. % CPE reduction=[(D−ND)/(NI−ND)]×100, in which D (drug-treated) is the absorbance of drug-treated cells; ND (non drug-treated) is the absorbance of untreated infected cells; and NI (non-infected) is the absorbance of non-infected cells.
# The EC50 represents the concentration of the drug that protects 50% of the cells from BVDV induced cytotoxicity (i.e., 50% CPE reduction). CC50 equals the concentration that affects the viability of 50% of the MDBK cells.
# [7] = test system: BVDV; assay: Two-way combination inhibition-of-CPE assay, BVDV-infected MDBK cells, MOI 0.05 (Example 5); format: cell-based, bovine viral diarrhea virus; details: read-out: EC50 protection of MDBK cells from BVDV-induced cytotoxicity
# Description: as §1
# Individual potencies (EC50) of each of the drugs for inhibition of BVDV-induced cytopathic effects in MDBK cells were determined for each combination experiment (see Table 9).
# [8] = MOI 0.01, combination experiments, compound alone, read-out: EC50 protection from BVDV-induced cytotoxicity, individual compound
# [9] = read-out: EC50 (50% CPE reduction), MOI = 0.01
# [10] = read-out: EC50 (50% CPE reduction), MOI = 0.1
# [11] = Bovine viral diarrhea virus isolates and strains, MDBK
compound,measurement,setting,value
Interferon-α2b,Average Interferon-α2b EC50,[1]; Castanospermine added 0 μM,16 IU/mL
same,Average Interferon-α2b EC50,[1]; Castanospermine added 1.2 μM,18 IU/mL
same,Average Interferon-α2b EC50,[1]; Castanospermine added 3.7 μM,13 IU/mL
same,Average Interferon-α2b EC50,[1]; Castanospermine added 11 μM,7 IU/mL
same,Average Interferon-α2b EC50,[1]; Castanospermine added 33 μM,1 IU/mL
same,Average Interferon-α2b EC50,[1]; Castanospermine added 100 μM,<1 IU/mL
same,"EC50 protection from BVDV-induced cytotoxicity, individual compound","[1]; MOI 0.01, combination experiments, compound alone",19 ± 6 IU/mL
same,fold decrease of interferon-α2b EC50,[1]; at 11 μM of castanospermine,~2 fold
"NC(=O)c1ncn([C@@H]2O[C@H](CO)[C@@H](O)[C@H]2O)n1 [Ribavirin, reference compound]",EC50,[1]; [8],4 ± 2 µM
same,fold reduction of ribavirin EC50 (isobologram),[1]; at about 10 IU/mL interferon-α2b,> 6 fold
same,CC50,"[2]; MDBK cells, Table 3, read-out: CC50",250 µM
same,CC50,[3],57 ± 34 µM
same,EC50,[4],2.4 ± 2.2 µM
same,EC90,[4],4.9 ± 1.9 µM
same,EC50,[5],9.1 ± 6.3 µM
same,EC50,[6]; [9],4.4 ± 2 µM
same,EC50,[6]; [10],9 ± 1 µM
"CCCCN1C[C@H](O)[C@@H](O)[C@H](O)[C@H]1CO [NB-DNJ, N-butyl-DNJ]",EC50,"[7]; MOI 0.05, individual drug",> 500 µM
"NC12CC3CC(CC(C3)C1)C2 [Amantadine, amantadine]",EC50,[7]; [11],400 µM
"O[C@H]1[C@H](O)[C@@H](O)CN2CC[C@H](O)[C@H]12 [Castanospermine, [1S-(1α,6β,7α,8β,8αβ)]-octahydro-1,6,7,8-indoli-zinetetrol]",EC50,"[1]; Interferon-α2b added 0 IU/mL, read-out: Average Castanospermine EC50",52 µM
same,EC50,"[1]; Interferon-α2b added 0.7 IU/mL, read-out: Average Castanospermine EC50",39 µM
same,EC50,"[1]; Interferon-α2b added 2.2 IU/mL, read-out: Average Castanospermine EC50",19 µM
same,EC50,"[1]; Interferon-α2b added 6.7 IU/mL, read-out: Average Castanospermine EC50",12 µM
same,EC50,"[1]; Interferon-α2b added 20 IU/mL, read-out: Average Castanospermine EC50",1 µM
same,EC50,"[1]; Interferon-α2b added 60 IU/mL, read-out: Average Castanospermine EC50",< 1 µM
same,EC50,[1]; [8],59 ± 16 µM
same,dose-dependent reduction in EC50 of castanospermine,[1]; addition of increasing concentrations of interferon-α2b,> 52 fold
same,fold reduction of castanospermine EC50 (isobologram),[1]; at 10 IU/mL of interferon-α2b,> 7 fold
same,fold decrease of castanospermine EC50,[1]; at 20 IU/mL interferon-α2b,~50 fold
same,EC50,[7]; [11],> 100 µM
same,CC50,[2],> 1000 µM
same,CC50,[3],> 1000 µM
same,EC50,[4],14 ± 8 µM
same,EC90,[4],83 ± 21 µM
same,EC50,[5],110 ± 82 µM
same,EC50,[6]; [9],61.5 ± 15.4 µM
same,EC50,[6]; [10],177 ± 14.5 µM
